Results reported in patent publication US20040038855A1 (priority 1999, published 2004).
pKi: −log10 of the molar value. Counter-ions that a name gives are not always drawn. Like-named read-outs stand apart in the source and are kept apart here.

Assays:
human NPY1 receptor = biological target: T1, human NPY1 receptor (Homo sapiens, UniProt P25929); assay: Binding affinity at the human NPY1 receptor
T1 construct: expressed in transfected cells
T1 sequence (P25929 1-384): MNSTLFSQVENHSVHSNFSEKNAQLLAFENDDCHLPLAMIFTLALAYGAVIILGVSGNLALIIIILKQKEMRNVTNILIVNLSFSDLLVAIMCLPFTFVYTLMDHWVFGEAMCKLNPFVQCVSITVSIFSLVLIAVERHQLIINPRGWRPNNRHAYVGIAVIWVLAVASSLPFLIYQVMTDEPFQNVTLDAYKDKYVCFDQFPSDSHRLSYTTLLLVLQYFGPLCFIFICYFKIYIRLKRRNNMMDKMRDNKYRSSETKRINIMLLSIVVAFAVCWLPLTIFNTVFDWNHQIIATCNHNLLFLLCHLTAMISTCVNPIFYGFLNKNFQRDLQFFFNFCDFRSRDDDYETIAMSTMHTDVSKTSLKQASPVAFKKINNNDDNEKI
Excerpt: (§1) The design of such compounds can be optimized by determining their binding affinity at the recombinant MCH1, NPY1, NPY2, Gal1, Gal2, Gal3, and 5HT2C receptors. The methods to obtain the cDNA of the receptor, express said receptors in heterologous systems, and carry out assays to determine binding affinity are described in the following publications: human NPY1 (Larhammar et al., 1992), human NPY5 (U.S. Pat. No. 5,602,024, the disclosure of which is hereby incorporated by reference in its entirety into this application), human Gall (Habert-Ortoli et al., 1994), human Gal2 (Smith et al., 1997), human Gal3 (Smith et al., 1998), and rat 5HT2C (Julius et al., 1988). Additionally, the compounds would optimally not bind at the following receptors due to possible side effects: human H1 histamine and human H2 histamine receptors; human alpha-1A adrenergic, human alpha-1D adrenergic, human alpha-2A adrenergic, human alpha-2B adrenergic, and human alpha-2C adrenergic receptors; human dopamine D1, D2, D3, D4, and D5 receptors; the β-adrenoceptor; and the human 5HT1A, human 5HT1B, human 5HT1D, human 5HT1E, human 5HT1F, human 5HT2A, rat 5HT2C, human 5HT4, human 5HT6, and human 5HT7 receptors.

human NPY5 receptor = biological target: T2, human NPY5 receptor (Homo sapiens, UniProt Q15761); assay: Binding affinity at the human NPY5 receptor
T2 construct: expressed in transfected cells
T2 sequence (Q15761 1-445): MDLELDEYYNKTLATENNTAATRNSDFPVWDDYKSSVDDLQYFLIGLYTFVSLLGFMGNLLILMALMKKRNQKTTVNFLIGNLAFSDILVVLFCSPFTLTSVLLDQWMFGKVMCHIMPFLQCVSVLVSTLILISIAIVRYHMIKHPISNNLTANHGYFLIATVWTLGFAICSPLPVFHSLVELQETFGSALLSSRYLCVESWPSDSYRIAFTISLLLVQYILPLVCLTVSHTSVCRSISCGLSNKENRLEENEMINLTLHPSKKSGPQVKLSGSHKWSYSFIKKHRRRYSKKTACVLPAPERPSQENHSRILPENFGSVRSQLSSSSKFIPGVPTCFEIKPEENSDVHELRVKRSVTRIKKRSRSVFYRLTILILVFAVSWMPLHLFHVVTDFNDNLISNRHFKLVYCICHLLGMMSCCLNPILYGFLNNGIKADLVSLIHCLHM
Excerpt: as §1

human GALR1 receptor = biological target: T3, human GALR1 receptor (Homo sapiens, UniProt P47211); assay: Binding affinity at the human GALR1 receptor
T3 construct: expressed in transfected cells
T3 sequence (P47211 1-349): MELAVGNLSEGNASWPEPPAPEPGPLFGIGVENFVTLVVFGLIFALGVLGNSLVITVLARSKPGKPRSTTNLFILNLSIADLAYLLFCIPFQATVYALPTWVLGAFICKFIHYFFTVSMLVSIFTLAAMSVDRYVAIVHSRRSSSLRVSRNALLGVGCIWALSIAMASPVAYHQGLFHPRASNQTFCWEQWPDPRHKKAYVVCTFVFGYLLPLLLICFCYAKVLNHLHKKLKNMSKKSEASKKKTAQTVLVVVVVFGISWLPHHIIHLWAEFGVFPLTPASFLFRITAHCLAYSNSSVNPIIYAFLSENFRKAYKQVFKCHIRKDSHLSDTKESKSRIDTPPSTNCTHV

human GALR3 receptor = biological target: T4, human GALR3 receptor (Homo sapiens, UniProt O60755); assay: Binding affinity at the human GALR3 receptor
T4 construct: expressed in transfected cells
T4 sequence (O60755 1-368): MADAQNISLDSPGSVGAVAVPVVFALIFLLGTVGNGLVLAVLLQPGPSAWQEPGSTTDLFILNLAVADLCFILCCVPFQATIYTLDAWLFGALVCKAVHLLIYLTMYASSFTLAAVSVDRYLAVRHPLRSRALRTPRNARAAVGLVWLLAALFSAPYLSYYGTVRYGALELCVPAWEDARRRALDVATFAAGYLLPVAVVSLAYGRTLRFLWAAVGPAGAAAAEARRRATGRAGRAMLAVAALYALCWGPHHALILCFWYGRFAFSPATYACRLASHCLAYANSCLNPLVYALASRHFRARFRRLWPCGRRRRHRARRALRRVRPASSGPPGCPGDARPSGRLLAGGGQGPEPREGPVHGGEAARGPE

human MCH1 receptor = human MCH1 receptor (Homo sapiens, UniProt Q99705); assay: Competition binding, membrane preparations of A293 cells expressing the human MCH1 receptor, [3H] Compound 10 as radioligand; design: expressed in transfected cells
Chain of human MCH1 receptor (Q99705 whole entry): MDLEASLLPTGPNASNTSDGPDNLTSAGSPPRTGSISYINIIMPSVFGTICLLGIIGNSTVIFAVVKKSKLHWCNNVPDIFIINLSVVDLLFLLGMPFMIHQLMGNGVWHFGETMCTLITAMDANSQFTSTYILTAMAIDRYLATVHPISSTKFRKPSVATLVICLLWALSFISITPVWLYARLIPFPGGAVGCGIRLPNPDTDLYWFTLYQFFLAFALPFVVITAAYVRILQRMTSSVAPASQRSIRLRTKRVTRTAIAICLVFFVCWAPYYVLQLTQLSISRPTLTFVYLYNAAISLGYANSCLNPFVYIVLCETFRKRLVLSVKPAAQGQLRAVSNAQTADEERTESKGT
Procedure: TRITIATED METHYL (4S)-3-{[(3-{4-[3-(ACETYLAMINO)PHENYL]-1-[…]}PROPYL)AMINO]CARBONYL}-4-(3,4-DIFLUOROPHENYL)-6-(METHOXYMETHYL)-2-OXO-1,2,3,4-TETRAHYDRO-5-PYRIMIDINECARBOXYLATE ([^3H] COMPOUND 10): This radiochemical synthesis was carried out by Amersham Pharmacia Biotech, Cardiff, Wales. A methanolic solution of methyl (4S)-3-({[3-(4-[3-(acetylamino)phenyl]-3,6-dihydro-1(2H)pyridinyl)propyl]amino}carbonyl)-4-(3,4-difluorophenyl)-6-(methoxymethyl)-2-oxo-1,2,3,4-tetrahydro-5-pyrimidinecarboxylate was exposed to tritium gas at 1 atmosphere pressure in the presence of 5% palladium on carbon with stirring overnight to give the tritiated methyl (4S)-3-{[(3-{4-[3-(acetylamino)phenyl]-1-piperidinyl}propyl)amino]carbonyl}-4-(3,4-difluorophenyl)-6-(methoxymethyl)-2-oxo-1,2,3,4-tetrahydro-5-pyrimidinecarboxylate ((+)-isomer) After purification by reverse phase HPLC (Hypersil ODS, 4.6×100 mm, methanol:H2O:Et3N 10:90:1 to 100:0:1 in 15 min at 1.0 mL/min, with radiochemical and UV detection), this product was used as a radioligand in the MCH1 binding assays. The same procedure was carried out with H2 gas in place of ^3H2 to afford the non-radioactive version of Compound 10.

[1] = Table 3b, A293 cell membranes, [3H] Compound 10, read-out: hMCH1* Ki

Row | Compound | pKi (human NPY1 receptor; Table 3a, read-out: hMPY1 Ki) | pKi (human NPY1 receptor; Table 3b, read-out: hNPY1 Ki) | pKi (human NPY5 receptor; Table 3a, read-out: hNPY5 Ki) | pKi (human NPY5 receptor; Table 3b, read-out: hNPY5 Ki) | pKi (human GALR1 receptor; Table 3a, read-out: hGALR1 Ki) | pKi (human GALR1 receptor; Table 3b, read-out: hGALR1 Ki) | pKi (human GALR3 receptor; Table 3a, read-out: hGALR3 Ki) | pKi (human GALR3 receptor; Table 3b, read-out: hGALR3 Ki) | pKi (human MCH1 receptor; [1]) | pKi (human NPY1 receptor) | pKi (human NPY5 receptor) | pKi (human NPY5 receptor; read-out: hNPY5 Ki, Table 3b) | pKi (human GALR1 receptor) | pKi (human GALR1 receptor; read-out: hGALR1 Ki, Table 3b) | pKi (human GALR3 receptor) | pKi (human GALR3 receptor; read-out: hGALR3 Ki, Table 3b) | pKi (human MCH1 receptor) | also measured
1 | 2-(3,4-DIFLUOROPHENYL)4,5-DIHYDROIMIDAZOLE-1-CARBOXYLIC ACID {3-[4-PHENYL-4-(4-BROMO-5-METHYLTHIOPNEN-2-YL)]-PROPYL}-AMIDE [Example 19] | < 4.30 | < 4.30 | < 4.30 | < 4.30 | < 4.30 | < 4.30 | < 4.30 | < 4.30 | 8.52 |  |  |  |  |  |  |  |  | pKi (human MCH1 receptor; Table 3e, read-out: hMCH1 Ki): 8.52; pKi (human MCH1 receptor; Table 3d, read-out: hMCH1 Ki): 8.52
2 | COC(=O)C1=C(C)NC(=O)N(C(=O)NCCCN2CCC3(CC2)OCc2ccccc23)C1c1ccc2nonc2c1 (single isomer, unassigned) [Example 18, HYDROCHLORIDE] |  |  |  |  |  |  |  |  |  | < 4.30 | < 4.30 | < 4.30 | < 4.30 | < 4.30 | < 4.30 | < 4.30 | 8.40 | pKi (human NPY1 receptor; read-out: hNPY1 Ki, Table 3b): < 4.30
3 | CCC1=C(C(=O)O)C(c2ccc(F)c(F)c2)N(C(=O)NCCCN2CCC3(CC2)OCc2ccccc23)C(=O)N1 (single isomer, unassigned; (+)) [Example 4, (+)-1,2,3,6-TETRAHYDRO-1-1N-[4-(BENZO-4′,5′(H)FURAN)PIPERIDIN-1-YL]PROPYL}-CARBOXAMIDO-4-ETHYL-6-(3,4-DIFLUOROPHENYL)-2-OXO-PYRIMIDINE-5 CARBOXYLIC ACID HYDROCHLORIDE] | < 4.30 | < 4.30 | < 4.30 | < 4.30 | < 4.30 | < 4.30 | < 4.30 | < 4.30 | 6.88 |  |  |  |  |  |  |  |  | 
4 | COCC1=C(C(=O)OC)C(c2ccc(F)c(F)c2)N(C(=O)NCCCN2CCC(c3cccc(NC(C)=O)c3)CC2)C(=O)N1 (single isomer, unassigned; (-)) [Example 1, (−)-1,2,3,6-TETRAHYDRO-1-{N-[4-(3,-ACETAMIDO)-PHENYLPIPERIDIN-1-YL]PROPYL}CARBOXAMIDO-4-METHOXYMETHYL-6-(3,4-DIFLUORO-PHENYL)-2-OXOPYRIMIDINE-5-CARBOXYLIC ACID METHYL ESTER] | < 4.30 | < 4.30 | < 4.30 | < 4.30 | < 4.30 | < 4.30 | < 4.30 | < 4.30 | 7.40 |  |  |  |  |  |  |  |  | 
5 | CCCCN(CCCC)c1ccc(CN2CCC(CNC(=O)N3C(=O)NC(C)=C(C(=O)OC)C3c3ccc4nonc4c3)CC2)cc1 (stereo not shown) [Example 6] | 5.18 | 5.18 | 5.32 | 5.32 | 4.96 | 4.96 | 4.68 | 4.68 | 6.33 |  |  |  |  |  |  |  |  | 
6 | COCC1=C(C(=O)OC)[C@H](c2ccc(F)c(F)c2)N(C(=O)NCCCN2CCC(c3cccc(NC(C)=O)c3)CC2)C(=O)N1 [Example 10, (+)-1,2,3,6-TETRAHYDRO-1-{N-[4-(3,-ACETAMIDO)-PHENYLPIPERIDIN-1-YL]PROPYL}CARBOXAMIDO-4-METHOXYMETHYL-6-(3,4-DIFLUORO-PHENYL)-2-OXOPYRIMIDINE-5-CARBOXYLIC ACID METHYL ESTER] | < 4.30 | < 4.30 | < 4.30 | < 4.30 | < 4.30 | < 4.30 | < 4.30 | < 4.30 | 10.10 |  |  |  |  |  |  |  |  | 
7 | CCCCN(CCCC)c1ccc(CNC[C@H]2CC[C@H](NC(=O)c3cccc4ccccc34)CC2)cc1 [Example 13, N1-[4-([4-(DIBUTYLAMINO)BENZYL]AMINOMETHYL)CYCLOHEXYL]-1-NAPHTH-AMIDE] | 5.02 | 5.02 | < 4.30 | < 4.30 | 4.95 | 4.95 | 5.22 | 5.22 | 6.77 |  |  |  |  |  |  |  |  | 
8 | COC(=O)C1=C(C)NC(=O)N(C(=O)NCCCN2CCC3(CC2)OCc2ccccc23)C1c1ccc(F)c(F)c1 (stereo not shown) [Example 20, 4-(3,4-DIFLUORPHENYL)-6-METHYL-2-OXO-3-{[3-(4-SPIRO[ISOBENZOFURAN-1(3H),4′-PIPERIDINE]PROPYL}-1,2,3,4-TETRAHYDROPYRIMIDINE-5-CARBOXYLIC ACID METHYL ESTER] |  |  |  |  |  |  |  |  |  | 4.57 | < 4.30 | < 4.30 | < 4.30 | < 4.30 | < 4.30 | < 4.30 | 8.22 | pKi (human NPY1 receptor; read-out: hMPY1 Ki, Table 3a): 4.57; pKi (human MCH1 receptor; read-out: hMCH1 Ki, Table 3e): 8.22; pKi (human MCH1 receptor; read-out: hMCH1 Ki, Table 3d): 8.22
9 | O=C(CCCN1CCC(O)(c2ccc(Cl)cc2)CC1)c1ccc(Cl)cc1 [Example 29] |  |  |  |  |  |  |  |  |  | < 4.30 | 4.34 | 4.34 | < 4.30 | < 4.30 | < 4.30 | < 4.30 | 6.46 | pKi (human NPY1 receptor; read-out: hNPY1 Ki, Table 3b): < 4.30
